Test results published in patent US8546608B2, “Proteasome inhibitors and methods of using the same” (Cephalon, Inc., priority 2003, dated 2013).
pEC50, pIC50: −log10 of the molar value.

Key:
[1] = target: T1, proteasome in Molt-4 cells (human leukemia) (Homo sapiens, UniProt P20618+P28074); format: cell-based; details: assay of Example E, inhibition of MOLT4; read-out: MOLT4 (EC50)
T1 sequence (P28074 60-263): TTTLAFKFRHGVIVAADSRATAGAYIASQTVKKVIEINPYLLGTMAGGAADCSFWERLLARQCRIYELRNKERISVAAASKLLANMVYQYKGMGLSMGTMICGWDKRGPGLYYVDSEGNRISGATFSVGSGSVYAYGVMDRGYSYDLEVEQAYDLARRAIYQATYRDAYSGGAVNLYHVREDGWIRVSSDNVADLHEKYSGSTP
T1 sequence (P20618 29-241): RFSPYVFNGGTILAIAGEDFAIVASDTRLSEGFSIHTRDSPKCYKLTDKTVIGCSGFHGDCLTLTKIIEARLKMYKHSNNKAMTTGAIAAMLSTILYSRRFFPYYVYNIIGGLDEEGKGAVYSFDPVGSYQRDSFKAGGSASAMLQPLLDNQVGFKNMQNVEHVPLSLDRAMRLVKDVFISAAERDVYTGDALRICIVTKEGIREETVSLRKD
Outline: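 Intact Molt-4 cells (6×10^6 cells/mL) in HEPES-buffered saline were preincubated with inhibitor 15 min at 37 °C, then given cell-permeable MeOSuc-FLF-AFC at 25 μM final.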

[2] = target: T2, 20S Human Erythrocyte Proteasome (HEP) (Homo sapiens, UniProt P20618+P28074); assay: Chymotrypsin-like activity of 20S Human Erythrocyte Proteasome (HEP), IC50 determination; format: biochemical; details: assay of Example C, inhibition of HEP
T2 construct: 20S Human Erythrocyte Proteasome (HEP), purchased from Immatics Biotechnologies Inc; purchased Immatics Biotechnologies Inc., Tübingen, Germany; host or cells: human erythrocytes (natural source)
Outline: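 20S proteasome at 0.2 μg/mL (about 0.6 nM catalytic sites) in 20 mM Tris with 0.04% SDS, preincubated 15 min at 37° C with inhibitor before Suc-LLVY-AMC (100 μM final). AMC fluorescence read in the linear range; triplicates, IC50 from concentration series.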

CCCCc1ccc(C(=O)N[C@@H](CNC(=O)c2cccnc2)C(=O)N[C@@H](CC(C)C)B2O[C@@H]3C[C@@H]4C[C@@H](C4(C)C)[C@]3(C)O2)cc1 [D.24.15, 4-butylbenzamide, N-[(1S)-1-[[[(1R)-1-[(3aS,4S,6S,7aR)-hexahydro-3a,5,5-trimethyl-4,6-methano-1,3,2-benzodioxaborol-2-yl]-3-methylbutyl]amino]carbonyl]-2-(nicotinonylamino)ethyl]-]
pEC50 [1]: > 6.70 | pIC50 [2]: > 8.00

CCCCCCCCCCCCC(=O)N[C@H](C(=O)N[C@@H](CC(C)C)B1O[C@@H]2C[C@@H]3C[C@@H](C3(C)C)[C@]2(C)O1)[C@@H](C)O [D.8.5, Tridecanamide, N-[(1S,2R)-1-[[[(1R)-1-[(3aS,4S,6S,7aR)-hexahydro-3a,5,5-trimethyl-4,6-methano-1,3,2-benzodioxaborol-2-yl]-3-methylbutyl]amino]carbonyl]-2-hydroxypropyl]]
pEC50 [1]: > 6.70 | pIC50 [2]: > 8.00

CCCCCCCCS(=O)(=O)N[C@@H](CCCNC(=N)N[N+](=O)[O-])C(=O)N[C@@H](CC(C)C)B1O[C@@H]2C[C@@H]3C[C@@H](C3(C)C)[C@]2(C)O1 [D.4.4, Octanesulfonamide, N-[(1S)-1-[[[(1R)-1-[(3aS,4S,6S,7aR)-hexahydro-3a,5,5-trimethyl-4,6-methano-1,3,2-benzodioxaborol-2-yl]-3-methylbutyl]amino]carbonyl]-4-[[imino(nitroamino)methyl]amino]butyl]]
pEC50 [1]: > 6.70 | pIC50 [2]: > 8.00

CCCCc1ccc(C(=O)N[C@@H](CNC(=O)C2CC2)C(=O)N[C@@H](CC(C)C)B2O[C@@H]3C[C@@H]4C[C@@H](C4(C)C)[C@]3(C)O2)cc1 [D.24.11]
pEC50 [1]: > 6.70 | pIC50 [2]: > 8.00

CC(C)C[C@H](NC(=O)[C@H](CCCNC(=N)N[N+](=O)[O-])NC(=O)Cc1ccc(Br)cc1)B(O)O [E.2.38, Boronic acid, [(1R)-1-[[(2S)-5-[[imino(nitroamino)methyl]amino]-2-[[2-(4-bromophenyl)acetyl]amino]-1-oxopentyl]amino]-3-methylbutyl]]
pEC50 [1]: 5.00 to 5.70 | pIC50 [2]: > 8.00

CC(=O)N[C@@H](CCCNC(=N)N[N+](=O)[O-])C(=O)N[C@@H](CC(C)C)B(O)O [E.2.65, Boronic acid, [(1R)-1-[[(2S)-5-[[imino(nitroamino)methyl]amino]-2-[(acetyl)amino]-1-oxopentyl]amino]-3-methylbutyl]]
pEC50 [1]: < 5.00 | pIC50 [2]: > 7.00

CC(C)C[C@H](NC(=O)[C@H](CCCNC(=N)N[N+](=O)[O-])NC(=O)C(CCCCCCCCC#N)C1CCCC1)B(O)O (mixture of isomers) [E.1.19, Boronic acid, [(1R)-1-[[(2S)-5-[[imino(nitroamino)methyl]amino]-2-[((RS)-10-cyano-2-cyclopentydecanoyl)amino]-1-oxopentyl]amino]-3-methylbutyl]]
pEC50 [1]: 5.70 to 6.70 | pIC50 [2]: > 8.00

CC(C)C[C@H](NC(=O)[C@H](CCCNC(=N)N[N+](=O)[O-])NC(=O)/C=C/c1cccs1)B(O)O [D.7.23, Boronic acid, [(1R)-1-[[(2S)-5-[[imino(nitroamino)methyl]amino]-2-[[3-(thiophen-2-yl)propenoyl]amino]-1-oxopentyl]amino]-3-methylbutyl]]
pEC50 [1]: < 5.00 | pIC50 [2]: > 8.00

COc1ccc(CCCC(=O)N[C@@H](CCCNC(=N)N[N+](=O)[O-])C(=O)N[C@@H](CC(C)C)B(O)O)cc1 [E.2.61, Boronic acid, [(1R)-1-[[(2S)-5-[[imino(nitroamino)methyl]amino]-2-[[4-(4-methoxyphenyl)-butanoyl]amino]-1-oxopentyl]amino]-3-methylbutyl]]
pEC50 [1]: 5.00 to 5.70 | pIC50 [2]: > 8.00

CC(C)C[C@H](NC(=O)[C@H](CCCNC(=N)N[N+](=O)[O-])NC(=O)CSc1ccc2ccccc2c1)B(O)O [E.2.58, Boronic acid, [(1R)-1-[[(2S)-5-[[imino(nitroamino)methyl]amino]-2-[[2-(2-naphthylsulfanyl)acetyl]amino]-1-oxopentyl]amino]-3-methylbutyl]]
pEC50 [1]: 5.00 to 5.70 | pIC50 [2]: > 8.00

CC(C)C[C@H](NC(=O)[C@H](CCCNC(=N)N[N+](=O)[O-])NC(=O)c1cccc2ccccc12)B1O[C@@H]2C[C@@H]3C[C@@H](C3(C)C)[C@]2(C)O1 [D.3.2, Naphthalen-1-carboxamide,N-[(1S)-1-[[[(1R)-1-[(3aS,4S,6S,7aR)-hexahydro-3a,5,5-trimethyl-4,6-methano-1,3,2-benzodioxaborol-2-yl]-3-methylbutyl]amino]carbonyl]-4-[[imino(nitroamino)methyl]amino]butyl]]
pEC50 [1]: > 6.70 | pIC50 [2]: > 8.00

CC(C)C[C@H](NC(=O)[C@H](CCCNC(=N)N[N+](=O)[O-])NC(=O)COc1ccc(C(C)C)cc1)B(O)O [D.7.5, Boronic acid, [(1R)-1-[[(2S)-5-[[imino(nitroamino)methyl]amino]-2-[(2-(4-isopropylphenoxy)acetyl)amino]-1-oxopentyl]amino]-3-methylbutyl]]
pEC50 [1]: 5.70 to 6.70 | pIC50 [2]: > 8.00

CC(C)C[C@H](NC(=O)[C@H](CCCNC(=N)N[N+](=O)[O-])NC(=O)c1ccc2ccccc2n1)B(O)O [E.2.18, Boronic acid, [(1R)-1-[[(2S)-5-[[imino(nitroamino)methyl]amino]-2-[(quinoline-2-carbonyl)amino]-1-oxopentyl]amino]-3-methylbutyl]]
pEC50 [1]: 5.00 to 5.70 | pIC50 [2]: > 8.00

CSCCC(=O)N[C@@H](CCCNC(=N)N[N+](=O)[O-])C(=O)N[C@@H](CC(C)C)B(O)O [E.2.50, Boronic acid, [(1R)-1-[[(2S)-5-[[imino(nitroamino)methyl]amino]-2-[(3-Methylsulfanylpropanoyl)amino]-1-oxopentyl]amino]-3-methylbutyl]]
pEC50 [1]: < 5.00 | pIC50 [2]: > 8.00

CC(C)C[C@H](NC(=O)[C@H](CCCNC(=N)N[N+](=O)[O-])NC(=O)COc1ccc2ccccc2c1)B1O[C@@H]2C[C@@H]3C[C@@H](C3(C)C)[C@]2(C)O1 [D.3.27, 2-[(Naphthalen-2-yl)oxy]acetamide,N-[(1S)-1-[[[(1R)-1-[(3aS,4S,6S,7aR)-hexahydro-3a,5,5-trimethyl-4,6-methano-1,3,2-benzodioxaborol-2-yl]-3-methylbutyl]amino]carbonyl]-4-[[imino(nitroamino)methyl]amino]butyl]]
pEC50 [1]: > 6.70 | pIC50 [2]: > 8.00

CC(C)C[C@H](NC(=O)[C@H](CCCNC(=N)N[N+](=O)[O-])NC(=O)CCCCCCCCCO)B1O[C@@H]2C[C@@H]3C[C@@H](C3(C)C)[C@]2(C)O1 [D.3.133, 10-Hydroxydecanamide,N-[(1S)-1-[[[(1R)-1-[(3aS,4S,6S,7aR)-hexahydro-3a,5,5-trimethyl-4,6-methano-1,3,2-benzodioxaborol-2-yl]-3-methylbutyl]amino]carbonyl]-4-[[imino(nitroamino)methyl]amino]butyl]]
pEC50 [1]: 5.70 to 6.70 | pIC50 [2]: > 8.00

CC(C)C[C@H](NC(=O)[C@H](CCCNC(=N)N[N+](=O)[O-])NC(=O)CCCCCCCc1ccccc1)B(O)O [E.2.46, Boronic acid, [(1R)-1-[[(2S)-5-[[imino(nitroamino)methyl]amino]-2-[(8-phenyloctanoyl)amino]-1-oxopentyl]amino]-3-methylbutyl]]
pEC50 [1]: 5.70 to 6.70 | pIC50 [2]: > 8.00

CC(C)C[C@H](NC(=O)[C@H](CCCNC(=N)N[N+](=O)[O-])NC(=O)CC12CC3CC(CC(C3)C1)C2)B(O)O [E.2.34]
pEC50 [1]: 5.00 to 5.70 | pIC50 [2]: > 8.00

CC(C)C[C@H](NC(=O)[C@H](CCCNC(=N)N[N+](=O)[O-])NC(=O)CCCNC(=O)OCC1c2ccccc2-c2ccccc21)B(O)O [D.7.38, Boronic acid, [(1R)-1-[[(2S)-5-[[imino(nitroamino)methyl]amino]-2-[[[[[(9H-fluoren-9-yl)methoxy]carbonyl]amino]butanoyl]amino]-1-oxopentyl]amino]-3-methylbutyl]]
pEC50 [1]: 5.70 to 6.70 | pIC50 [2]: > 8.00

CC(C)C[C@H](NC(=O)[C@H](CCCNC(=N)N[N+](=O)[O-])NC(=O)CCCCCCCCCCCNC(=O)OC(C)(C)C)B1O[C@@H]2C[C@@H]3C[C@@H](C3(C)C)[C@]2(C)O1 [D.2.4, 12-[(1,1-dimethylethoxy)carbonylamino] dodecanamide,N-[(1S)-1-[[[(1R)-1-[(3aS,4S,6S,7aR)-hexahydro-3a,5,5-trimethyl-4,6-methano-1,3,2-benzodioxaborol-2-yl]-3-methylbutyl]amino]carbonyl]-4-[[imino(nitroamino)methyl]amino]butyl]-]
pEC50 [1]: > 6.70 | pIC50 [2]: > 8.00

CC(=O)N1CCC[C@H]1C(=O)N[C@@H](CCCNC(=N)N[N+](=O)[O-])C(=O)N[C@@H](CC(C)C)B(O)O [E.2.51, Boronic acid, [(1R)-1-[[(2S)-5-[[imino(nitroamino)methyl]amino]-2-[((2S)-1-acetylpyrrolidine-2-carbonyl)amino]-1-oxopentyl]amino]-3-methylbutyl]]
pEC50 [1]: < 5.00 | pIC50 [2]: > 7.00
